# Reference: article PMC10959927, “Platinum iodido drugs show potential anti-tumor activity, affecting cancer cell metabolism and inducing ROS and senescence in gastrointestinal cancer cells” (Communications Biology, 2024)
# Where “and” joins values, the source holds several entries; their conditions need not be identical. Equal values may be shown once. Read-outs that look alike come from different tables or passages of the source.
# Assays:
# AGS cells [1] = assay: Cell viability, crystal violet staining; settings: read-out: IC50 concentration (± SD) at 48 h, AGS, 48 h
# Method: (§1) Cell viability was assessed using a crystal violet-based staining method. […] The cells (2 × 10^5) were seeded in 24-multiwell dishes in 0.5 mL of complete medium and incubated overnight. […] After 48 h, cells were fixed with 1% glutaraldehyde (20–30 min), washed with distilled water, and stained with 0.1% crystal violet. […] IC50 were calculated by using GraphPad Prism (version 8.0). Nonlinear regression was used to fit the data to the log (inhibitor) versus response (variable slope).
# MKN45 cells [2] = assay: Cell viability, crystal violet staining; settings: read-out: IC50 concentration (± SD) at 48 h, 48 h
# Method: as §1
# PANC1 cells [3] = assay: Cell viability, crystal violet staining; settings: read-out: IC50 concentration (± SD) at 48 h, 48 h
# Method: as §1
# AGS cells [4] = assay: Flow cytometry mitochondrial mass and membrane potential (MitoTracker Green / CMXRos); format: cell-based, human
# Method: (§2) We used flow cytometry to study the mitochondrial mass, mitochondrial membrane potential (ΔΨm) and cellular senescence of untreated and treated cells. Cells (5 × 10^4) were seeded in 24-multiwell dishes and cultured overnight. […] Cells were tripsinized, stained with Mitoprobes and resuspended in Flow buffer [1X PBS; 3% Fetal Bovine Serum (v/v); 3 mM EDTA (v/v)] before analysis with a 4-laser Attune NxT Acoustic Cytometer (Thermo Fisher Scientific). For Mitoprobe assays, […] DAPI (Sigma) was used to exclude dead cells. Data were analyzed with FlowJo 9.3 software (Tree Star Inc., Ashland, OR). For mitochondrial mass and ΔΨm measurement, Mitotracker Green (MTGreen, M7514, Invitrogen) and Mitotracker Red CMXRos (CMXROS, M7512, Invitrogen) were used, respectively. Probes were incubated with cells for 30 min at 37 °C at a concentration of 100 nM (MTGreen) and 20 nM (CMXROS), and fluorescence was detected using the filters (Ex488nm/Em530/30) BL1 and (Ex561nm/Em585/16) YL1, respectively. To determine mitochondria functionality, the ratio between ΔΨm (MitoTracker Red CMXRos) versus Mit. Mass (MitoTracker Green) was calculated. The gating strategy used in all the Flow Cytometry experiments is reflected in Fig.S10.
# MKN45 cells [5] = assay: as above; format: cell-based, human
# Method: as §2
# PANC1 cells [6] = assay: as above; format: cell-based, human
# Method: as §2
# AGS cells [7] = assay: RT-qPCR gene expression (CDKN1A, IL6, MMP1, MAP2K3, SOD1, SOD2, CAT, MKI67, TNFRSF10D); format: cell-based, human
# Method: (§3) Total cellular RNA was extracted using Tri-Reagent (Life Technologies), following the manufacturer’s instructions. One μg of total RNA was primed with random primers and cDNA synthesized with an M-MLV reverse transcriptase following the manufacturer’s instructions (Promega). Target genes were amplified using a SYBR Green polymerase chain reaction assay, working with the specific primer sets listed in Table 4.
# (§4) Thermal cycling of the qPCR reaction was initiated with a denaturation step at 95 °C for 10 min. The process consisted of 40 cycles (denaturation at 95 °C for 15 sec, annealing at 60 °C for 30 sec, and elongation at 75 °C for 30 sec). PCR amplifications were carried out in a StepOne Real‐time PCR System (Applied Biosystems, 4376357). Relative mRNA levels were calculated by the delta-Ct method (2-ΔΔCt), where each 1-Ct difference equals a two-fold change in transcript abundance, using GAPDH as an endogenous gene reference. ΔΔCT represents the difference between the mean ΔCT value of the cells tested and the mean ΔCT value of the calibrator, both calculated for the same PCR run.
# MKN45 cells [8] = assay: as above; format: cell-based, human
# Method: as §3, §4
# PANC1 cells [9] = assay: as above; format: cell-based, human
# Method: as §3, §4
# AGS cells [10] = assay: Ratio GSH/GSSG, colorimetric kit; format: cell-based, human
# Method: (§5) GSH and GSSG levels were determined in AGS and PANC1 cells after 3 and 24 h of treatment with the compounds (using H2O2 as a positive control) with the Glutathione Colorimetric Detection Kit (ThermoFisher) following the manufacturer’s instructions. Thirty minutes after adding the Colorimetric Detection Reagent and the Reaction Mixture, the absorbance was read at 405 nm. A standard curve was generated with each assay to interpolate the sample results. To measure GSSG, standards and samples must be diluted with the Sample Diluent containing 2-vinylpyridine.
# PANC1 cells [11] = assay: Ratio GSH/GSSG, colorimetric kit; format: cell-based, human
# Method: as §5
# [12] = MKN45, fold change vs C, replicates
# [13] = PANC1, fold change vs C, replicates
# [14] = MKN45, Fig. 3C, replicate values
# [15] = PANC1, Fig. 3C, replicate values
smiles,measurement,setting,value
"[NH2][Pt]([NH2])([Cl])[Cl] [CDDP, cisplatin, reference compound]",IC50,AGS cells [1]; NAC (+) 0.5 mM,22.7 ± 4.03 µM
same,IC50,AGS cells [1]; NAC (-),26.7 ± 2.21 µM
same,IC50,"MKN45 cells [2]; MKN45, NAC (+) 0.5 mM",10.2 ± 1.56 µM
same,IC50,"MKN45 cells [2]; MKN45, NAC (-)",10 µM and 9.45 µM
same,IC50,"PANC1 cells [3]; PANC1, NAC (+) 0.5 mM",9.46 ± 1.29 µM
same,IC50,"PANC1 cells [3]; PANC1, NAC (-)",10 µM and 12.3 µM
same,Fold change ΔΨm/MM,"AGS cells [4]; IC50 doses 24 h, CMX-ROS/MitoGreen ratio vs untreated 1.0",1.12 and 0.8 and 0.61
same,"Fold change %CMXROS, ΔΨm","AGS cells [4]; fold change vs C, replicates",0.87 and 0.86 and 0.72
same,"Fold change %MTGreen, MM","AGS cells [4]; fold change vs C, replicates",0.78 and 0.73 and 0.76
same,Fold change ΔΨm/MM,"MKN45 cells [5]; MKN45, IC50 doses 24 h, CMX-ROS/MitoGreen ratio vs untreated 1.0",0.77 and 0.76
same,"Fold change %CMXROS, ΔΨm",MKN45 cells [5]; [12],0.72 and 0.71
same,"Fold change %MTGreen, MM",MKN45 cells [5]; [12],0.94 and 0.93
same,Fold change ΔΨm/MM,"PANC1 cells [6]; PANC1, IC50 doses 24 h, CMX-ROS/MitoGreen ratio vs untreated 1.0",0.48 and 0.57 and 0.56
same,"Fold change %CMXROS, ΔΨm",PANC1 cells [6]; [13],1.08 and 1.13
same,"Fold change %MTGreen, MM",PANC1 cells [6]; [13],1.99 and 2.23 and 2.11
same,"CDKN1A, Fold change vs GAPDH","AGS cells [7]; Fig. 3C, replicate values",19.195 fold change and 16.0881 fold change and 22.9019 fold change
same,"IL-6, Fold change vs GAPDH","AGS cells [7]; Fig. 3C, replicate values",0.7415 fold change and 0.5536 fold change and 0.449 fold change
same,"MMP-1, Fold change vs GAPDH","AGS cells [7]; Fig. 3C, replicate values",4.748 fold change and 3.523 fold change and 6.399 fold change
same,Fold change MAP2K3 vs GAPDH,"AGS cells [7]; Fig. 4B, replicate values",3.776 fold change and 3.2606 fold change and 4.374 fold change
same,TNFRSF10D Fold change vs GAPDH,AGS cells [7]; Fig. S4C,10.7682 fold change and 9.829 fold change and 11.7968 fold change
same,CAT (Fold change vs GAPDH),AGS cells [7]; mRNA vs Control = 1,0.4339 Fold change and 0.4032 Fold change and 0.467 Fold change
same,SOD1 (Fold change vs GAPDH),AGS cells [7]; mRNA vs Control = 1,1.248 Fold change and 1.114 Fold change and 1.397 Fold change
same,SOD2 (Fold change vs GAPDH),AGS cells [7]; mRNA vs Control = 1,1.83 Fold change and 1.608 Fold change and 2.083 Fold change
same,MKI67 Fold change vs GAPDH,"MKN45 cells [8]; MKN45, Fig. S4C",0.592 fold change and 0.4427 fold change and 0.7916 fold change
same,TNFRSF10D Fold change vs GAPDH,"MKN45 cells [8]; MKN45, Fig. S4C",0.5932 fold change and 0.4461 fold change and 0.7888 fold change
same,CAT (Fold change vs GAPDH),"MKN45 cells [8]; MKN45, mRNA vs Control = 1",1.496 Fold change and 1.261 Fold change and 1.775 Fold change
same,SOD1 (Fold change vs GAPDH),"MKN45 cells [8]; MKN45, mRNA vs Control = 1",1.684 Fold change and 1.471 Fold change and 1.928 Fold change
same,SOD2 (Fold change vs GAPDH),"MKN45 cells [8]; MKN45, mRNA vs Control = 1",5.8142 Fold change and 4.057 Fold change and 3.7805 Fold change
same,"CDKN1A, Fold change vs GAPDH",MKN45 cells [8]; [14],4.774 fold change and 4.07 fold change and 5.599 fold change
same,"IL-6, Fold change vs GAPDH",MKN45 cells [8]; [14],1.95 fold change and 3.642 fold change and 4.704 fold change
same,"MMP-1, Fold change vs GAPDH",MKN45 cells [8]; [14],3.347 fold change and 2.194 fold change and 5.104 fold change
same,Fold change MAP2K3 vs GAPDH,"MKN45 cells [8]; MKN45, Fig. 4B, replicate values",2.858 fold change and 2.103 fold change and 3.884 fold change
same,MKI67 Fold change vs GAPDH,"PANC1 cells [9]; PANC1, Fig. S4C",0.584 fold change and 0.4541 fold change and 0.7511 fold change
same,TNFRSF10D Fold change vs GAPDH,"PANC1 cells [9]; PANC1, Fig. S4C",2.899 fold change and 2.5476 fold change and 3.299 fold change
same,CAT (Fold change vs GAPDH),"PANC1 cells [9]; PANC1, mRNA vs Control = 1",0.9643 Fold change and 0.7898 Fold change and 1.177 Fold change
same,SOD1 (Fold change vs GAPDH),"PANC1 cells [9]; PANC1, mRNA vs Control = 1",1.201 Fold change and 1.761 Fold change and 1.789 Fold change
same,SOD2 (Fold change vs GAPDH),"PANC1 cells [9]; PANC1, mRNA vs Control = 1",0.4267 Fold change and 0.395 Fold change and 0.4609 Fold change
same,"CDKN1A, Fold change vs GAPDH",PANC1 cells [9]; [15],2.689 fold change and 2.397 fold change and 3.018 fold change
same,"IL-6, Fold change vs GAPDH",PANC1 cells [9]; [15],6.723 fold change and 5.78 fold change and 7.821 fold change
same,"MMP-1, Fold change vs GAPDH",PANC1 cells [9]; [15],3.584 fold change and 2.804 fold change and 4.175 fold change
same,Fold change MAP2K3 vs GAPDH,"PANC1 cells [9]; PANC1, Fig. 4B, replicate values",2.138 fold change and 1.804 fold change and 2.534 fold change
same,GSH/GSSG,"AGS cells [10]; AGS, 3, relative to Control = 1",0.992 and 0.9971 and 1.026
same,GSH/GSSG,"AGS cells [10]; AGS, 24, relative to Control = 1",0.8767 and 0.8827 and 0.9433
same,GSH/GSSG,"PANC1 cells [11]; PANC1, 3, relative to Control = 1",0.8204 and 0.833 and 0.8843
same,GSH/GSSG,"PANC1 cells [11]; PANC1, 24, relative to Control = 1",0.8133 and 0.9393 and 0.9531
